Assays:
[1] = target: R232-STING (Homo sapiens (Human), UniProt Q86WV6, H232R); conditions: read-out: R232-STING SPA-IC50 Ki; STING residues 155-341, 100 nM 3H-cGAMP; KI from IC50 with Cheng-Prusoff equation
[2] = tested on: THP-1 Lucia ISG cells (IRF-inducible Lucia luciferase reporter); assay: Interferon-β induction: THP-1 ISG reporter cell line; assay type: cell-based; conditions: THP1-Lucia ISG, 24 hours incubation, read-out: THP-1 Lucia ISG Cells IFN-β EC50
Experimental: Interferon-β Induction: THP-1 ISG Reporter Cell Line
THP-1 Lucia™ ISG cells (InvivoGen) express the secreted luciferase “Lucia” reporter gene under the control of an IRF-inducible composite promotor comprised of five interferon response elements. THP-1 Lucia™ ISG cells were grown in RPMI media plus 2 mM L-glutamine, 10% fetal bovine serum, and 0.5% Pen-Strep. Hygromycin B and Zeocin were present to maintain stable transfection. 10^4 cells were seeded in 96-well plates and incubated overnight 37° C., 5% CO2. 50 μL of serial diluted compounds in media (final 0.5% DMSO) was and incubated for an additional 24 hours. After incubation, the plates were centrifuged at 2000 rpm for 10 min. 50 μl of cell culture supernatant of each well was transferred to a white, opaque 96-well plate. One pouch of QUANTI-Luc™ (InvivoGen) powder was prepared in 25 mL of endotoxin-free water and 100 μL of prepared warm QUANTI-Luc solution were added to each well containing the supernatant. The luminescence signal was measured using a Perkin-Elmer Envision microplate reader. Data were normalized to “% effect” with a positive control STING agonist that was known to maximize the luciferase signal and the negative control DMSO.

[3] = tested on: phosphorylation of IRF3 in THP-1 cells (STING activation); assay: Phosphorylation of IRF3: THP-1 cell ELISA; assay type: cell-based; conditions: Homo sapiens, 3 hours incubation, read-out: THP-1 CELL P-IRF3 EC50
Experimental: Phosphorylation of IRF3: THP-1 cell ELISA
STING activation results in recruitment of TBK1 and phosphorylation of IRF3 transcription factor before induction of type I interferons. THP-1 cells (InvivoGen) were grown in RPMI media plus 2 mM L-glutamine, 10% fetal bovine serum, and 0.5% Pen-Strep. 10^4 cells were seeded in 96-well plates and incubated overnight […]. Compounds serial diluted compounds in media (final 0.5% DMSO) were added to the cells and incubated for an additional 3 hours. After incubation, the plates were centrifuged at 2000 rpm for 5 min. The cells were then lysed in 100 μl RIPA buffer and vortexed for 30 minutes at room temperature. 25 μl of lysate was then transferred to clear polystyrene High Bind plates that had been previously coated with mouse anti-human IRF-3 capture antibody (BD Pharmigen), and allowed to incubate at 4° C. for 16 hours. The plates were then washed and incubated with rabbit anti-phospho-IRF3 detection antibody (Cell Signaling Technologies) for 1.5 hours at room temperature. Finally, an HRP-linked secondary antibody (Cell Signaling Technologies) was added for 30 min before the Glo Substrate Reagent (R&D Systems) was used generate the luminescent signal. The signal was measured using a Perkin-Elmer Envision microplate reader. Data were normalized to “% effect” with a positive control STING agonist that was known to maximize the phosphorylated IRF3 signal and the negative control was DMSO.

Sequence of R232-STING (Q86WV6 155-341 H232R): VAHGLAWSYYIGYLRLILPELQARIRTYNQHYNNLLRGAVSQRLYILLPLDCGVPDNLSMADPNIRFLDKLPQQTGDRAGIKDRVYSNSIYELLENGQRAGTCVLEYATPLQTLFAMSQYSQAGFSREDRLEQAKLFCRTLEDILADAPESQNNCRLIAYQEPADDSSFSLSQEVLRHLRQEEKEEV

Ki [1] [nM] | EC50 [2] [nM] | EC50 [3] [nM] | Structure (SMILES)
5.7 | 160 | 140 | COCCCn1nc(C)cc1-c1cn(C)c(-c2nc(C(N)=O)cc3c2cnn3C)n1 [AIF03, 4-{4-[1-(3-methoxypropyl)-3-methyl-1H-pyrazol-5-yl]-1-methyl-1H-imidazol-2-yl}-1-methyl-1H-pyrazolo[4,3-c]pyridine-6-carboxamide]
175 | > 10000 | > 10000 | Cc1cc(-c2cn(C)c(-c3nc(C(N)=O)cc4c3cnn4C)n2)n(C[C@H]2CCO2)n1 (single isomer, unassigned) [Example AIM01]
12.1 | 1170 | 1260 | CCn1nc(C)cc1-c1cn(C)c(-c2nc(C(N)=O)cc3c2cnn3CC)n1 [Example AIC01, 1-ethyl-4-[4-(1-ethyl-3-methyl-1H-pyrazol-5-yl)-1-methyl-1H-imidazol-2-yl]-1H-pyrazolo[4,3-c]pyridine-6-carboxamide]
2 | 200 | 310 | CCn1nc(C)c(O)c1-c1cn(C)c(-c2nc(C(N)=O)cc3c2cnn3C)n1 [AIF07, 4-[4-(1-ethyl-4-hydroxy-3-methyl-1H-pyrazol-5-yl)-1-methyl-1H-imidazol-2-yl]-1-methyl-1H-pyrazolo[4,3-c]pyridine-6-carboxamide]
87.5 | 6310 | 6420 | CCc1nc(C)cn1-c1cn(C)c(-c2nc(C(N)=O)cc3c2cnn3C)n1 [Example AID01, 4-(2-ethyl-1′,4-dimethyl-1′H-[1,4′-biimidazol]-2′-yl)-1-methyl-1H-pyrazolo[4,3-c]pyridine-6-carboxamide]
148 | 6260 | 6580 | CCCn1nccc1-c1cn(C)c(-c2nc(C(N)=O)cc3c2cnn3C)n1 [AIH03, 1-methyl-4-[1-methyl-4-(1-propyl-1H-pyrazol-5-yl)-1H-imidazol-2-yl]-1H-pyrazolo[4,3-c]pyridine-6-carboxamide]
43.1 | > 10000 | > 10000 | Cc1cc(-c2cn(C)c(-c3nc(C(N)=O)cc4c3cnn4C)n2)n(CC#N)n1 [Example AIP01, 4-{4-[1-(cyanomethyl)-3-methyl-1H-pyrazol-5-yl]-1-methyl-1H-imidazol-2-yl}-1-methyl-1H-pyrazolo[4,3-c]pyridine-6-carboxamide]
24.6 | 530 | 530 | Cc1cc(-c2cn(C)c(-c3nc(C(N)=O)cc4c3cnn4C)n2)n(CCCOC(F)F)n1 [Example AIL01, 4-(4-{1-[3-(difluoromethoxy)propyl]-3-methyl-1H-pyrazol-5-yl}-1-methyl-1H-imidazol-2-yl)-1-methyl-1H-pyrazolo[4,3-c]pyridine-6-carboxamide]
22.7 | 2560 | 4300 | Cc1cc(-c2cn(C)c(-c3nc(C(N)=O)cc4c3cnn4C)n2)n(C)n1 [AIH02, 4-[4-(1,3-dimethyl-1H-pyrazol-5-yl)-1-methyl-1H-imidazol-2-yl]-1-methyl-1H-pyrazolo[4,3-c]pyridine-6-carboxamide]
93.3 | > 10000 | > 10000 | CCn1nccc1-c1cn(C)c(-c2nc(C(N)=O)cc3c2cnn3C)n1 [AIH05, 4-[4-(1-ethyl-1H-pyrazol-5-yl)-1-methyl-1H-imidazol-2-yl]-1-methyl-1H-pyrazolo[4,3-c]pyridine-6-carboxamide]
10.2 | 450 | 400 | CCn1ncc2c(-c3nc(-c4cc(C)nn4CCCO)cn3C)nc(C(N)=O)cc21 [Example AIJ01, 1-ethyl-4-{4-[1-(3-hydroxypropyl)-3-methyl-1H-pyrazol-5-yl]-1-methyl-1H-imidazol-2-yl}-1H-pyrazolo[4,3-c]pyridine-6-carboxamide]
2.4 | 370 | 310 | CCn1nc(C)c(F)c1-c1cn(C)c(-c2nc(C(N)=O)cc3c2cnn3C)n1 [AIF12, 4-[4-(1-ethyl-4-fluoro-3-methyl-1H-pyrazol-5-yl)-1-methyl-1H-imidazol-2-yl]-1-methyl-1H-pyrazolo[4,3-c]pyridine-6-carboxamide]
28.2 | 1320 | 1370 | Cc1cc(-c2cn(C)c(-c3nc(C(N)=O)cc4c3cnn4C)n2)n(CCCC(F)F)n1 [AIF14, 4-{4-[1-(4,4-difluorobutyl)-3-methyl-1H-pyrazol-5-yl]-1-methyl-1H-imidazol-2-yl}-1-methyl-1H-pyrazolo[4,3-c]pyridine-6-carboxamide]
54.6 | 2160 | 2090 | COCCn1nc(C)cc1-c1cn(C)c(-c2nc(C(N)=O)cc3c2cnn3C)n1 [AIF02, 4-{4-[1-(2-methoxyethyl)-3-methyl-1H-pyrazol-5-yl]-1-methyl-1H-imidazol-2-yl}-1-methyl-1H-pyrazolo[4,3-c]pyridine-6-carboxamide]
13.7 | 740 | 690 | Cc1cc(-c2cn(C)c(-c3nc(C(N)=O)cc4c3cnn4C)n2)n(CCCCO)n1 [AIE04, 4-{4-[1-(4-hydroxybutyl)-3-methyl-1H-pyrazol-5-yl]-1-methyl-1H-imidazol-2-yl}-1-methyl-1H-pyrazolo[4,3-c]pyridine-6-carboxamide]
4.6 | 800 | 730 | COCCCn1nc(C)cc1-c1cn(C)c(-c2nc(C(N)=O)cc3c2cnn3C2CC2)n1 [Example AIN01, 1-cyclopropyl-4-{4-[1-(3-methoxypropyl)-3-methyl-1H-pyrazol-5-yl]-1-methyl-1H-imidazol-2-yl}-1H-pyrazolo[4,3-c]pyridine-6-carboxamide]
71.4 | 4530 | 4890 | CCn1nc(C)cc1-c1cn(C(C)C)c(-c2nc(C(N)=O)cc3c2cnn3C)n1 [AIA03, 4-[4-(1-ethyl-3-methyl-1H-pyrazol-5-yl)-1-(propan-2-yl)-1H-imidazol-2-yl]-1-methyl-1H-pyrazolo[4,3-c]pyridine-6-carboxamide]
2.9 | 160 | 250 | CCn1cc(-c2c(O)c(C)nn2CC)nc1-c1nc(C(N)=O)cc2c1cnn2C [AIF13, 4-[1-ethyl-4-(1-ethyl-4-hydroxy-3-methyl-1H-pyrazol-5-yl)-1H-imidazol-2-yl]-1-methyl-1H-pyrazolo[4,3-c]pyridine-6-carboxamide]
161 | > 10000 | > 10000 | Cc1cc(-c2cn(C)c(-c3nc(C(N)=O)cc4c3cnn4C)n2)n(CC(N)=O)n1 [Example AIP02, 4-{4-[1-(2-amino-2-oxoethyl)-3-methyl-1H-pyrazol-5-yl]-1-methyl-1H-imidazol-2-yl}-1-methyl-1H-pyrazolo[4,3-c]pyridine-6-carboxamide]
35.2 | 1240 | 1140 | CCn1nc(C)cc1-c1cn(CCOC)c(-c2nc(C(N)=O)cc3c2cnn3C)n1 [AIP04, 4-[4-(1-ethyl-3-methyl-1H-pyrazol-5-yl)-1-(2-methoxyethyl)-1H-imidazol-2-yl]-1-methyl-1H-pyrazolo[4,3-c]pyridine-6-carboxamide]
2.9 | 310 | 370 | CCn1nc(C)c(O)c1-c1cn(C)c(-c2nc(C(N)=O)cc3c2cnn3CC)n1 [AIN04, 1-ethyl-4-[4-(1-ethyl-4-hydroxy-3-methyl-1H-pyrazol-5-yl)-1-methyl-1H-imidazol-2-yl]-1H-pyrazolo[4,3-c]pyridine-6-carboxamide]
81.8 | > 10000 | > 10000 | CCn1nc(C)cc1-c1cn(C)c(-c2nc(C(N)=O)nc3c2cnn3C)n1 [Example AIG01, 4-[4-(1-ethyl-3-methyl-1H-pyrazol-5-yl)-1-methyl-1H-imidazol-2-yl]-1-methyl-1H-pyrazolo[3,4-d]pyrimidine-6-carboxamide]

Structure (SMILES) | Ki [1] [nM] | EC50 [2] [nM] | EC50 [3] [nM]
Cc1cc(-c2cn(C)c(-c3nc(C(N)=O)cc4c3cnn4C)n2)n(CCCO)n1 [Example AIE01, 4-{4-[1-(3-hydroxypropyl)-3-methyl-1H-pyrazol-5-yl]-1-methyl-1H-imidazol-2-yl}-1-methyl-1H-pyrazolo[4,3-c]pyridine-6-carboxamide] | 3.6 | 220 | 200
